{
  "source": "patent US20230364102A1",
  "about": "“COMPOSITIONS AND METHODS FOR THE TREATMENT OF NEUROLOGICAL DISORDERS” (Duke University, priority 2020, published 2023)",
  "key": {"[1]": {"tested_on": "human LRRK2 G2019S or GFP expressing neuronal cultures", "test": "QPCR-based mtDNA damage assay in primary midbrain neuronal cultures expressing human LRRK2 G2019S", "format": "cell-based", "settings": "treated for 6 h", "excerpt": "Divide the normalized fluorescence values of each sample by the average normalized fluorescence value to get a ratio. […]"}, "[2]": {"tested_on": "primary rat midbrain neurons", "test": "Rotenone-induced mtDNA damage in primary midbrain neurons", "format": "cell-based", "settings": "pre-treated for 24 h before rotenone", "experimental": "(§1) This example describes how mitochondrial DNA damage was measured using a quantitative PCR-based assay as described above. The following reagents and protocol steps as disclosed in Sanders et al., Curr Protoc Toxicol. 2018 May; 76(1): e50, doi: 10.1002/cptx.50 and also in U.S. Pat. No. 11,001,890. The entire contents of said publication and patent are herein incorporated by reference.\n(§2) Make a master mix if several samples are being run simultaneously. […]\n(§3) Perform the PCR reaction using the PCR amplification profile is as follows for the large mitochondrial PCR product using the KAPA LongRange Hot Start kit: • Melting: 94° C. for 3 min • Amplification: the optimized number of cycles (26-28) of melting (94° C. for 15 sec) and annealing (66° C. for 12 min). • Final extension: To complete the profile and finalize amplification of products, perform a final extension for 10 min at 72° C. • Holding: Hold at 4° C. until products are removed for quantification. […]\n(§4) (1) Add 10 μL of each PCR product and 90 μL of TE buffer to each of triplicate wells. […] Follow steps 6, 7 and 8 in Support Protocol 2 for fluorescent quantification of DNA.\n(§5) Normalize large mitochondrial PCR product fluorescence values for copy number differences using the small mitochondrial PCR product. […] This is the normalized large mitochondrial fluorescence value (A. M. Furda, Bess, Meyer, & Van Houten, 2012a). […]"}, "[3]": {"tested_on": "LRRK2 G2019S patient-derived cells", "test": "mtDNA damage in LRRK2 G2019S patient-derived cells", "format": "cell-based, human", "settings": "24 h, 1 μM, n=3", "experimental": "as §1, §2, §3, §4, §5"}, "ATM pSer1981 [4]": {"tested_on": "ATM pSer1981", "test": "Western blot of ATM pSer1981 in HEK293 cells", "format": "cell-based, human", "settings": "100 nM, 24 h vs vehicle"}, "ATM pSer1981 [5]": {"tested_on": "ATM pSer1981", "settings": "following treatment with the neurotoxin; cited from earlier work"}},
  "data": [
    {"compound": "CCNc1nc(Nc2cc(F)c(C(=O)N3CCOCC3)cc2OC)ncc1C(F)(F)F", "note": "[GNE-7915]", "values": [
      {"measurement": "mtDNA damage (mtDNA integrity)", "setting": "[1]", "result": "restored mtDNA integrity"},
      {"measurement": "prevention of rotenone induced mtDNA damage", "setting": "[2]", "result": "able to prevent rotenone induced mtDNA damage"}
    ]},
    {"compound": "C[C@@H]1CN(CC(=O)Nc2ccc3c(c2)Cc2cccc(-c4cc(=O)cc(N5CCOCC5)o4)c2S3)C[C@H](C)O1", "note": "[KU60019]", "values": [
      {"measurement": "mtDNA damage", "setting": "[3]", "result": "sufficient to reverse mtDNA damage"}
    ]},
    {"compound": "C=C(C)[C@H]1Cc2c(ccc3c2O[C@@H]2COc4cc(OC)c(OC)cc4[C@@H]2C3=O)O1", "note": "[rotenone]", "values": [
      {"measurement": "ATM pSer1981 (kinase active) level", "setting": "ATM pSer1981 [4]", "result": "increased ATM pSer1981 levels"},
      {"measurement": "ATM pSer1981 (kinase active) level", "setting": "ATM pSer1981 [4]; listed as Rotenone", "result": "increased levels of ATM pSer1981"}
    ]},
    {"compound": "C[n+]1ccc(-c2ccccc2)cc1", "note": "[MPP+]", "values": [
      {"measurement": "expression of ATM pSer1981", "setting": "ATM pSer1981 [5]", "result": "increased"}
    ]}
  ]
}
